Test results: US20240391923A1, “METHIONINE ADENOSYLTRANSFERASE 2A INHIBITOR FOR TREATING MTAP DELETION-TYPE CANCER” (SUZHOU GENHOUSE BIO CO., LTD., priority 2022, published 2024)
Read-outs that look alike come from different tables or passages of the source.

Legend:
[1] = system: SDMA in human colon cancer cell line HCT116; assay: Cell symmetric dimethylarginine (SDMA) test, In-cell Western, HCT116 (MTAP wild-type); type: cell-based; settings: Homo sapiens, HCT-116, 96 h
Method in brief: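 SDMA level, an indirect readout of cellular MAT2A inhibition, measured by In-cell Western as background-subtracted 800/700 nm signal against DRAQ5. Cells exposed 4 days to six 1:4-diluted doses from 6 μM; inhibition relative to DMSO, IC50 from sigmoidal fit.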

[2] = system: SDMA in HCT116-MTAP-knockout cell line; assay: Cell symmetric dimethylarginine (SDMA) test, In-cell Western, HCT116-MTAP-knockout; type: cell-based; settings: Homo sapiens, 96 h
[3] = system: Hut-78 cell strain; assay: Tumor cell proliferation inhibition assay (CellTiter-Glo), Hut-78; type: cell-based; settings: Hut-78 cells, 5-day treatment
Protocol: After the HCT116-MTAP-knockout (−/−) cell strain, the HCT116-MTAP wild-type(+/+)-cell strain, the DOHH-2 cell strain, or the Hut-78 cell strain was treated with the test compound for 5 days, the ATP level was measured using a CellTiter-Glo kit of Promega to evaluate the inhibition of the test compound against the growth of the tumor cell strain.
In the present application, the HCT116-MTAP-knockout (−/−) cell strain, the HCT116-MTAP wild-type (+/+)-cell strain, the DOHH-2 cell strain, or the Hut-78 cell strain was seeded into a 96-well cell culture plate at an appropriate cell density. After 24 h, the cells were treated using the test compounds diluted 1:3 fold at the highest concentration of 10 μM for 10 gradients, and a DMSO treatment group was set up separately. The cells were cultured in a 37° C./5% CO2 incubator for 5 days.

[4] = biological target: MAT2A recombinant protein (Homo sapiens, UniProt P31153); assay: MAT2A inhibitory activity (malachite green colorimetric enzyme assay); type: biochemical
Method in brief: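 Compounds tested over 10 points, 3-fold dilutions, top final concentration 1000 nM. Enzyme reaction: MAT2A, L-methionine, ATP, room temperature, 60 min, in HEPES pH 7.5 buffer with KCl, MgCl2 and DTT; inorganic phosphate read colorimetrically (malachite green, A630). Inhibition vs log concentration fitted for IC50.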

[5] = system: HCT116-MTAP-knockout (−/−) cell strain; assay: Tumor cell proliferation inhibition assay (CellTiter-Glo), HCT116-MTAP-knockout (-/-); type: cell-based; settings: Homo sapiens, 120 h, HCT116-MTAP-knockout (−/−) cells, 5-day treatment
Method in brief: (§1)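 Cells seeded, then after 24 h treated with 10-point 1:3 dilutions from 10 μM top concentration, DMSO control. Cultured 5 days at 37 °C/5% CO2; growth inhibition from ATP level by CellTiter-Glo luminescence.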

[6] = system: HCT116-MTAP wild-type (+/+)-cell strain; assay: Tumor cell proliferation inhibition assay (CellTiter-Glo), HCT116-MTAP wild-type (+/+); type: cell-based; settings: Homo sapiens, 120 h, HCT116-MTAP wild-type (+/+) cells, 5-day treatment
Method in brief: as §1

[7] = Pharmacokinetic test in mice (IV and PO); type: in vivo; settings: BALB/c mice; for AUC (in words) / half-life (T½) (in words): summary of Table 7; for AUC / clearance / bioavailability / half-life / Vd: mouse, plasma; for half-life: read-out: T½ (converted); for Vd: read-out: Vz
[8] = IC50 score class, read-out: Cell 96 h SDMA Inhibition (HCT116-MTAP+/+) (score)
[9] = read-out: Cell 96 h SDMA inhibition (HCT116-MTAP+/+)
[10] = IC50 score class, read-out: Cell 96 h SDMA Inhibition (HCT116-MTAP−/−) (score)
[11] = read-out: Cell 96 h SDMA Inhibition (HCT116-MTAP−/−)
[12] = Homo sapiens, HuT78, 120 h, IC50 score, read-out: Tumor cell 5-day relative growth inhibition (Hut-78) (nM), score
[13] = Homo sapiens, HuT78, 120 h, IC50 value, read-out: Tumor cell 5-day relative growth inhibition (Hut-78)
[14] = IC50 score class, read-out: MAT2A Inhibition (score)
[15] = IC50 score, read-out: Tumor cell 5-day relative growth inhibition (HCT116-MTAP−/−) (nM), score
[16] = IC50 value, read-out: Tumor cell 5-day relative growth inhibition (HCT116-MTAP−/−)
[17] = IC50 score, read-out: Tumor cell 5-day relative growth inhibition (HCT116-MTAP+/+) (nM), score
[18] = IC50 value, read-out: Tumor cell 5-day relative growth inhibition (HCT116-MTAP+/+)

Sequence of MAT2A recombinant protein (P31153 whole entry): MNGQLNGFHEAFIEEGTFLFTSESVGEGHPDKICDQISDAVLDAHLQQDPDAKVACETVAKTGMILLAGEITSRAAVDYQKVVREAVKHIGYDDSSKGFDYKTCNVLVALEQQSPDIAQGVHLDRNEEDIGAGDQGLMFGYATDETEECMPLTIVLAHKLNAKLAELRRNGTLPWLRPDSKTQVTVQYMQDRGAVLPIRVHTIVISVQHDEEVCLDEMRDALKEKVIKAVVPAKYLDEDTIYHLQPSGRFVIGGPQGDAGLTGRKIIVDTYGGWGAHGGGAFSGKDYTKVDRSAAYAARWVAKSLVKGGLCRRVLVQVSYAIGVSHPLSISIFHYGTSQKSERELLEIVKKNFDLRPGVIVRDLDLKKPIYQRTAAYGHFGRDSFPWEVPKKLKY

Structure (SMILES) | IC50 [1, 8] | IC50 [1, 9] | IC50 [2, 10] | IC50 [2, 11] | IC50 [3, 12] | IC50 [3, 13] | IC50 [4, 14] | IC50 ([4]; read-out: MAT2A Inhibition) | also measured
Cn1cc2c(n1)c(=O)n(-c1ccnn1C)c1cc(Cl)ccc21 [Compound B58] | 1 to 3 µM | 1.19 µM | 0.2 to 1 µM | 0.267 µM | < 500 nM | 206 nM | < 0.1 µM | 0.0552 µM | –
Cc1ncccc1-n1c(=O)c2[nH]ncc2c2ccc(Cl)cc21 [Compound B103] | < 0.2 µM | 0.0539 µM | < 0.2 µM | 0.0278 µM | < 500 nM | 14.6 nM | < 0.1 µM | 0.0548 µM | –
Cn1cc2c(n1)c(=O)n(Cc1ccn[nH]1)c1nc(C(F)(F)F)ccc21 [Compound B123] | – | – | – | – | ≥ 2000 nM | > 2000 nM | < 0.1 µM | 0.0537 µM | –
Cc1cc(-n2c(=O)c3nn(C)cc3c3ccc(Cl)cc32)n(C)n1 [Compound B175] | > 3 µM | 6.98 µM | 0.2 to 1 µM | 0.993 µM | ≥ 2000 nM | 2040 nM | < 0.1 µM | 0.0805 µM | –
COc1cc(Cl)cc2c1c1cn(C)nc1c(=O)n2-c1cccnc1 [Compound B176] | 1 to 3 µM | 1.32 µM | 0.2 to 1 µM | 0.263 µM | 500 to 2000 nM | 985 nM | < 0.1 µM | 0.0246 µM | –
Cn1cc2c(n1)c(=O)n(-c1ccccc1)c1nc(C(F)(F)F)ccc21 [Compound B177] | 0.2 to 1 µM | 0.859 µM | 0.2 to 1 µM | 0.3 µM | 500 to 2000 nM | 866 nM | < 0.1 µM | 0.0243 µM | –
Cc1ncccc1-n1c(=O)c2nn(C)cc2c2ccc(C(F)(F)F)nc21 [Compound B179] | – | – | – | – | – | – | – | – | IC50 ([3]; IC50 score, read-out: Tumor cell 5-day relative growth inhibition (Hut-78) (nM), score): ≥ 2000 nM; IC50 ([3]; IC50 value, read-out: Tumor cell 5-day relative growth inhibition (Hut-78)): 7990 nM
Cn1cc2c(n1)c(=O)n(-c1cccnc1C1CC1)c1nc(C(F)(F)F)ccc21 [Compound B183] | < 0.2 µM | 0.13 µM | < 0.2 µM | 0.0479 µM | < 500 nM | 108 nM | – | – | –
Cn1cc2c(n1)c(=O)n(-c1cccc(C#N)c1)c1nc(C(F)(F)F)ccc21 [Compound B192] | 1 to 3 µM | 2.45 µM | 0.2 to 1 µM | 0.255 µM | < 500 nM | 378 nM | < 0.1 µM | 0.0269 µM | –
Cn1cc2c(n1)c(=O)n(-c1cccnc1C#N)c1nc(C(F)(F)F)ccc21 [Compound B207] | 0.2 to 1 µM | 0.495 µM | < 0.2 µM | 0.106 µM | < 500 nM | 179 nM | – | – | –
O=c1c2nn(C(F)F)cc2c2ccc(C(F)(F)F)nc2n1-c1cccc2[nH]ncc12 [Compound B245] | > 3 µM | 7.2 µM | < 0.2 µM | 0.11 µM | – | – | < 0.1 µM | 0.011 µM | IC50 [5, 15]: < 500 nM; IC50 [5, 16]: 242 nM; IC50 [6, 17]: 500 to 2000 nM; IC50 [6, 18]: 1100 nM; AUC (in words) [7]: relatively high; half-life (T½) (in words) [7]: relatively long; AUC ([7]; IV 2 mg/kg): 200 µM·h; clearance ([7]; IV 2 mg/kg): 0.3 mL/min/kg; bioavailability ([7]; IV 2 mg/kg, PO 10 mg/kg): 80%; half-life ([7]; IV 2 mg/kg): 10.8 h; Vd ([7]; IV 2 mg/kg): 0.3 L/kg; AUC ([7]; PO 10 mg/kg): 807 µM·h; half-life ([7]; PO 10 mg/kg): 18 h
Cc1c2c(nn1C(F)F)c(=O)n(-c1cccc3[nH]ncc13)c1nc(C(F)(F)F)ccc21 [Compound B254] | – | – | < 0.2 µM | 0.067 µM | – | – | < 0.1 µM | 0.0237 µM | IC50 [5, 15]: < 500 nM; IC50 [5, 16]: 382 nM; IC50 [6, 17]: 500 to 2000 nM; IC50 [6, 18]: 1630 nM; AUC (in words) [7]: relatively high; half-life (T½) (in words) [7]: relatively long; AUC ([7]; IV 2 mg/kg): 245 µM·h; clearance ([7]; IV 2 mg/kg): 0.317 mL/min/kg; bioavailability ([7]; IV 2 mg/kg, PO 10 mg/kg): 126%; half-life ([7]; IV 2 mg/kg): 5.73 h; Vd ([7]; IV 2 mg/kg): 0.2 L/kg; AUC ([7]; PO 10 mg/kg): 1470 µM·h; half-life ([7]; PO 10 mg/kg): 5.79 h
[2H]C([2H])([2H])n1cc2c(n1)c(=O)n(-c1cccc3[nH]ncc13)c1nc(C(F)(F)F)ccc21 [Compound B256] | – | – | < 0.2 µM | 0.028 µM | – | – | < 0.1 µM | 0.0169 µM | IC50 [5, 15]: < 500 nM; IC50 [5, 16]: 29.5 nM; IC50 [6, 17]: 500 to 2000 nM; IC50 [6, 18]: 577 nM; AUC (in words) [7]: relatively high; half-life (T½) (in words) [7]: relatively long; AUC ([7]; IV 2 mg/kg): 37.8 µM·h; clearance ([7]; IV 2 mg/kg): 2.28 mL/min/kg; bioavailability ([7]; IV 2 mg/kg, PO 10 mg/kg): 175%; half-life ([7]; IV 2 mg/kg): 5.28 h; Vd ([7]; IV 2 mg/kg): 1 L/kg; AUC ([7]; PO 10 mg/kg): 331 µM·h; half-life ([7]; PO 10 mg/kg): 8.61 h
O=c1c2nn(C(F)F)cc2c2cc(F)c(C3CC3)nc2n1-c1cccnc1C1CC1 [Compound B361] | > 3 µM | > 10 µM | < 0.2 µM | 0.012 µM | – | – | < 0.1 µM | 0.015 µM | IC50 [5, 15]: < 500 nM; IC50 [5, 16]: 128 nM; IC50 [6, 17]: ≥ 2000 nM; IC50 [6, 18]: > 10000 nM; AUC ([7]; IV 2 mg/kg): 31.5 µM·h; clearance ([7]; IV 2 mg/kg): 2.42 mL/min/kg; bioavailability ([7]; IV 2 mg/kg, PO 10 mg/kg): 65%; half-life ([7]; IV 2 mg/kg): 6.4 h; Vd ([7]; IV 2 mg/kg): 1.34 L/kg; AUC ([7]; PO 10 mg/kg): 93.4 µM·h; half-life ([7]; PO 10 mg/kg): 8 h
